Reference: patent US8785459B2, “Quinazoline compounds as kinase inhibitors” (Development Center for Biotechnology, priority 2011, dated 2014)

Assays:
Assay type in all cases: biochemical
[1] = target: C-Raf (Homo sapiens (Human), UniProt P04049); test: Raf kinase assay (C-Raf), [33P] incorporation into MEK1(K97R)
Protocol: (§1) A. Raf Kinase Assays (B-Raf, B-raf (V600E), and C-Raf)
(§2) Inhibition of kinase activity by test compound disclosed herein was estimated by quantifying the amount of [^33P] incorporation of substrate in the presence of test compound. Standard assay conditions were 2 ng of recombinant C-Raf or 5 ng of recombinant B-Raf or 5 ng of recombinant B-Raf (V600E) kinase (Upstate Biotechnology) with 500 ng MEK1(K97R) in assay buffer {8 μM ATP, 0.5 μCi [^33P]ATP (specific activity 3000 Ci/mmol, PerkinElmer), 50 mM Tris/HCl (pH7.5), and 1 mM EGTA, 1 mM Na3VO4, 1% 2-mercaptoethanol, 0.1% Brij 35, and 0.2 mg/ml BSA} at a final volume of 25 μL. Reactions were incubated at 30° C. for 30 min and stopped by adding 3% phosphoric acid, harvested onto a 96-well GF/B UniFilter (PerkinElmer) using a unifilter harvester (PerkinElmer), and counted with a TopCount microplate scintillation counter (PerkinElmer). The IC50 values of inhibitors were determined after carrying out assays at 3-fold serially diluted concentrations of each compound in duplication. The results were analyzed using linear regression software (GraphPad Prism 4; GraphPad Software Inc.). Inhibition of B-Raf, B-raf (V600E), and C-Raf kinases by various compounds listed in Table 1 are summarized and shown in Table 3 below. IC50 value is defined as the concentration of the test compound which achieves a half-maximal inhibition of the kinase activity.

[2] = target: B-Raf (Homo sapiens (Human), UniProt P15056); test: Raf kinase assay (B-Raf), [33P] incorporation into MEK1(K97R); conditions: for inhibition at 1 µM: 1.0 μM compound, read-out: B-Raf inhibition at 1.0 μM
Sequence of B-Raf (P15056 whole entry): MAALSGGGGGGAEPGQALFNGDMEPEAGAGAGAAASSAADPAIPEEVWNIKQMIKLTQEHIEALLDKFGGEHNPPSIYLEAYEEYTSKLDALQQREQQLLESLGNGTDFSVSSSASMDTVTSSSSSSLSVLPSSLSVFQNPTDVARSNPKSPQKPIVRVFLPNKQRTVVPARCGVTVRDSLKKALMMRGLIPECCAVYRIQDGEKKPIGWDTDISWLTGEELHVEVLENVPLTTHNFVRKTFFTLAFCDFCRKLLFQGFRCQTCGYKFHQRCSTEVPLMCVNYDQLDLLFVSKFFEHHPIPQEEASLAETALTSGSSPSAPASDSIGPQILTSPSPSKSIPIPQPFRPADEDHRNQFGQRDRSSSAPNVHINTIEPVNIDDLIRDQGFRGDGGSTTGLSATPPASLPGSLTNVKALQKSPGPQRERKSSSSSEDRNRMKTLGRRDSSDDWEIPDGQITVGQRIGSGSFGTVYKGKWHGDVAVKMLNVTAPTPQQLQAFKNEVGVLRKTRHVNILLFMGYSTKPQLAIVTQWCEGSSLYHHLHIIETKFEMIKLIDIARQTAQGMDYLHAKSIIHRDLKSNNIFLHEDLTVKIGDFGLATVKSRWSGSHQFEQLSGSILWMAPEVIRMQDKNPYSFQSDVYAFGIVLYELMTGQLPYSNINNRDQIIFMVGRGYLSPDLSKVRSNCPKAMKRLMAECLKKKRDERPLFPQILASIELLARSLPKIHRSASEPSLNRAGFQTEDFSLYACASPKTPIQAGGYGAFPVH
Protocol: as §1, §2

[3] = target: B-Raf (V600E) (Homo sapiens (Human), UniProt P15056, V600E); test: Raf kinase assay (B-Raf (V600E)), [33P] incorporation into MEK1(K97R)
Sequence of B-Raf (V600E) (P15056 whole entry V600E): as the sequence (P15056 whole entry) above, with V600E counted along it
Protocol: as §1, §2

Sequence of C-Raf (P04049 whole entry): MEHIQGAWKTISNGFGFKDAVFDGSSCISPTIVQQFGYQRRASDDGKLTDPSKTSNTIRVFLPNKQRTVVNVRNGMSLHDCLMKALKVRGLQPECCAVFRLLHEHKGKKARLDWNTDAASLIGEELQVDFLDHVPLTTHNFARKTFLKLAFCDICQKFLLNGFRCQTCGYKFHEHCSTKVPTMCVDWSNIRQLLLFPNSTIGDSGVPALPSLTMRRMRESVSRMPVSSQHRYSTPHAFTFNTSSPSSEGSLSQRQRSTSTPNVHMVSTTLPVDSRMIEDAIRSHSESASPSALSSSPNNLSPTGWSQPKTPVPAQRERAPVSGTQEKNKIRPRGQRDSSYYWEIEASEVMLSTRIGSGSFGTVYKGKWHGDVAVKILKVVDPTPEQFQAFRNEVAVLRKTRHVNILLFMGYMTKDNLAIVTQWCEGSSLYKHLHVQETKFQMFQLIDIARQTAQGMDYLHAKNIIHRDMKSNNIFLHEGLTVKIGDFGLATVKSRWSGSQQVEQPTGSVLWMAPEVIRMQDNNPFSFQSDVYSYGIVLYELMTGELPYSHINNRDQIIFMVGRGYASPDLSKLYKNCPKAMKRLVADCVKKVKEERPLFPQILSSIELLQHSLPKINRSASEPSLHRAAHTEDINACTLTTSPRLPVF

IC50 [1] [nM] | IC50 [2] [nM] | inhibition at 1 µM [2] [%] | IC50 [3] [nM] | SMILES
588 | 244 | 79.1 | 280 | Fc1cccc(-c2ccc3ncnc(Nc4cccc5[nH]ncc45)c3c2)c1 [Compound 81, 6-(3-fluorophenyl)-N-(1H-indazol-4-yl)quinazolin-4-amine]
2130 | 380 | 72.6 | 515 | COc1cccc(-c2ccc3ncnc(Nc4cccc5[nH]ncc45)c3c2)c1OC [Compound 105, 6-(2,3-dimethoxyphenyl)-N-(1H-indazol-4-yl)quinazolin-4-amine]
882 | 594 | 55.3 | 471 | COc1cc(-c2ccc3ncnc(Nc4ccc(F)cc4F)c3c2)ccc1O [Compound 20, 4-(4-(2,4-difluorophenylamino)quinazolin-6-yl)-2-methoxyphenol]
4420 | 760 | 57.7 | 706 | COc1cc(-c2ccc3ncnc(Nc4c(F)cccc4F)c3c2)ccc1O [Compound 134, 4-(4-(2,6-difluorophenylamino)quinazolin-6-yl)-2-methoxyphenol]
876 | 216 | 86.1 | 240 | COc1ccc(-c2ccc3ncnc(Nc4cccc5[nH]ncc45)c3c2)cc1Cl [Compound 76, 6-(3-chloro-4-methoxyphenyl)-N-(1H-indazol-4-yl)quinazolin-4-amine]
778 | 235 | 81.1 | 357 | Cc1ccc(F)cc1-c1ccc2ncnc(Nc3cccc4[nH]ncc34)c2c1 [Compound 104, 6-(5-fluoro-2-methylphenyl)-N-(1H-indazol-4-yl)quinazolin-4-amine]
1560 | 1110 | 54.9 | 842 | COc1ccc(Nc2ncnc3ccc(-c4ccc(O)c(OC)c4)cc23)cc1O [Compound 25, 4-(4-(3-hydroxy-4-methoxyphenylamino)quinazolin-6-yl)-2-methoxyphenol]
1960 | 227 | 75.4 | 357 | Oc1cccc(-c2ccc3ncnc(Nc4cccc5[nH]ncc45)c3c2)c1 [Compound 143, 3-(4-(1H-indazol-4-ylamino)quinazolin-6-yl)phenol]
988 | 548 | 68.2 | 525 | COc1cc(-c2ccc3ncnc(Nc4cccc(OC(F)F)c4)c3c2)ccc1O [Compound 118, 4-(4-(3-(difluoromethoxy)phenylamino)quinazolin-6-yl)-2-methoxyphenol]
957 | 260 | 75 | 342 | Nc1ccc(-c2ccc3ncnc(Nc4cccc5[nH]ncc45)c3c2)cc1 [Compound 69, 6-(4-aminophenyl)-N-(1H-indazol-4-yl)quinazolin-4-amine]
3510 | 151 | 83 | 216 | Oc1c(F)ccc(Nc2ncnc3ccc(-c4ccc(Cl)cc4)cc23)c1F [Compound 164, 3-(6-(4-chlorophenyl)quinazolin-4-ylamino)-2,6-difluorophenol]
3280 | 1030 | 51.6 | 1440 | COc1cc(-c2ccc3ncnc(Nc4ccc5cn[nH]c5c4)c3c2)ccc1O [Compound 39, 4-(4-(1H-indazol-6-ylamino)quinazolin-6-yl)-2-methoxyphenol]
6990 | 256 | 76.3 | 675 | COc1cc(-c2ccc3ncnc(Nc4cccc([N+](=O)[O-])c4)c3c2)ccc1O [Compound 36, 2-methoxy-4-(4-(3-nitrophenylamino)quinazolin-6-yl)phenol]
753 | 227 | 76.2 | 284 | Nc1ccc(-c2ccc3nccc(Nc4cccc5[nH]ncc45)c3c2)cc1 [Compound 121, 6-(4-aminophenyl)-N-(1H-indazol-4-yl)quinolin-4-amine]
835 | 382 | 73.9 | 358 | COc1cc(-c2ccc3ncnc(Nc4cccc(NC(=O)C(F)(F)F)c4)c3c2)ccc1O [Compound 45, 2,2,2-trifluoro-N-(3-(6-(4-hydroxy-3-methoxyphenyl)quinazolin-4-ylamino)phenyl)acetamide]
1410 | 430 | 76.2 | 551 | OCc1cccc(-c2ccc3ncnc(Nc4cccc5[nH]ncc45)c3c2)c1 [Compound 94, (3-(4-(1H-indazol-4-ylamino)quinazolin-6-yl)phenyl)methanol]
597 | 201 | 77.8 | 287 | c1ccc(-c2ccc3ncnc(Nc4cccc5[nH]ncc45)c3c2)cc1 [Compound 86, N-(1H-indazol-4-yl)-6-phenylquinazolin-4-amine]
1290 | 430 | 70.9 | 534 | CS(=O)(=O)Nc1cccc(-c2ccc3ncnc(Nc4cccc5[nH]ncc45)c3c2)c1 [Compound 95, N-(3-(4-(1H-indazol-4-ylamino)quinazolin-6-yl)phenyl)methanesulfonamide]
> 10000 | 266 | 82.2 | 349 | COc1cc(-c2cc3c(Nc4ccc(C)c(O)c4)ncnc3cc2OC)ccc1O [Compound 41, 4-(4-(3-hydroxy-4-methylphenylamino)-7-methoxyquinazolin-6-yl)-2-methoxyphenol]
685 | 489 | 65.3 | 382 | COc1cc(-c2ccc3ncnc(Nc4cccc(NC(C)=O)c4)c3c2)ccc1O [Compound 44, N-(3-(6-(4-hydroxy-3-methoxyphenyl)quinazolin-4-ylamino)phenyl)acetamide]
709 | 155 | 85.3 | 255 | Fc1ccccc1-c1ccc2ncnc(Nc3cccc4[nH]ncc34)c2c1 [Compound 91, 6-(2-fluorophenyl)-N-(1H-indazol-4-yl)quinazolin-4-amine]
1960 | 624 | 64.4 | 576 | COc1cc(-c2ccc3ncnc(Nc4ccc(S(N)(=O)=O)cc4)c3c2)ccc1O [Compound 46, 4-(6-(4-hydroxy-3-methoxyphenyl)quinazolin-4-ylamino)benzenesulfonamide]
2530 | 698 | 61.7 | 911 | COc1ccc(-c2ccc3ncnc(Nc4cccc5[nH]ncc45)c3c2)c(C)c1 [Compound 77, N-(1H-indazol-4-yl)-6-(4-methoxy-2-methylphenyl)quinazolin-4-amine]
680 | 221 | 81.1 | 244 | CCS(=O)(=O)Nc1cccc(-c2ccc3ncnc(Nc4cccc5[nH]ncc45)c3c2)c1 [Compound 108, N-(3-(4-(1H-indazol-4-ylamino)quinazolin-6-yl)phenyl)ethanesulfonamide]
935 | 373 | 77.2 | 393 | CC(=O)Nc1ccc(-c2ccc3ncnc(Nc4cccc5[nH]ncc45)c3c2)cc1 [Compound 71, N-(4-(4-(1H-indazol-4-ylamino)quinazolin-6-yl)phenyl)acetamide]
810 | 1120 | 47.6 | 1360 | COc1cc(-c2ccc3ncnc(Nc4ccc(Cl)cc4O)c3c2)ccc1O [Compound 21, 4-(4-(4-chloro-2-hydroxyphenylamino)quinazolin-6-yl)-2-methoxyphenol]
2570 | 735 | 56.2 | 633 | COc1cc(-c2ccc3ncnc(Nc4ccc5nc[nH]c5c4)c3c2)ccc1O [Compound 54, 4-(4-(1H-benzo[d]imidazol-6-ylamino)quinazolin-6-yl)-2-methoxyphenol]
584 | 230 | 68.9 | 359 | Oc1cccc(-c2ccc3nccc(Nc4cccc5[nH]ncc45)c3c2)c1 [Compound 148, 3-(4-(1H-indazol-4-ylamino)quinolin-6-yl)phenol]
2400 | 103 | 84.3 | 139 | COc1cccc(-c2ccc3ncnc(Nc4cccc(O)c4)c3c2)c1 [Compound 67, 3-(6-(3-methoxyphenyl)quinazolin-4-ylamino)phenol]
1060 | 177 | 85.7 | 212 | COc1cc(-c2ccc3ncnc(Nc4ccc(C)c(O)c4)c3c2)ccc1O [Compound 29, 4-(4-(3-hydroxy-4-methylphenylamino)quinazolin-6-yl)-2-methoxyphenol]
